Test results: patent publication US10508085B2, “Compounds and methods for IDO and TDO modulation, and indications therefor” (Plexxikon Inc., priority 2016, dated 2019)
Like-named read-outs stand apart in the source and are kept apart here.

Legend:
[1] = biological target: T1, Human Indoleamine 2,3-dioxygenase (IDO) (Homo sapiens, UniProt P14902); assay: Human IDO enzymatic assay (kynurenine level); assay type: biochemical; conditions: 6 nM IDO, 10 μM L-Trp; geometric mean; read-out: IDO1 GMean: IC50 (μM) (Biochemical Assay)
T1 construct: His tag (N); made in house; host or cells: E. coli
Summary of the method: (§1)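 N-His human IDO (6 nM, 10 μM L-Trp, 5 μM methylene blue, 20 min) or TDO (1 nM, 350 μM L-Trp, 0.4 μM methylene blue, 70 min) run at room temp in pH 6.5 phosphate with ascorbate, catalase, Tween 20. TCA stop, 30 min 50 °C converts N-formylkynurenine to kynurenine; IC50 by nonlinear regression.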

[2] = biological target: T2, human TDO (TDO-expressing HEK293 cells) (Homo sapiens, UniProt P48775); assay: Cell based kynurenine assay, TDO-expressing HEK293 cell clones; conditions: TDO-expressing HEK293 cells, geometric mean, read-out: HEK293 TDO Kynurenine GMean IC50 (μM) (Cellular Assay)
T2 construct: expressed in transfected cells
Summary of the method: (§2)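 Cellular IDO1 and TDO activity is followed as kynurenine released by stably transfected HEK293 clones over 24 h with test compound. Controls are DMSO-treated cells and media alone.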

[3] = biological target: T3, human IDO (IDO1-expressing HEK293 cells) (Homo sapiens, UniProt P14902); assay: Cell based kynurenine assay, IDO1-expressing HEK293 cell clones; conditions: IDO1-expressing HEK293 cells, geometric mean, read-out: HEK293 IDO1 Kynurenine GMean IC50 (μM) (Cellular Assay)
T3 construct: expressed in transfected cells
Summary of the method: as §2

[4] = biological target: T4, Human Tryptophan 2,3-dioxygenase (TDO) (Homo sapiens, UniProt P48775); assay: Human TDO enzymatic assay (kynurenine level); assay type: biochemical; conditions: 1 nM TDO, 350 μM L-Trp; geometric mean; read-out: TDO GMean: IC50 (μM) (Biochemical Assay)
T4 construct: His tag (N); made in house; host or cells: E. coli
Summary of the method: as §1

T1 sequence (P14902 whole entry): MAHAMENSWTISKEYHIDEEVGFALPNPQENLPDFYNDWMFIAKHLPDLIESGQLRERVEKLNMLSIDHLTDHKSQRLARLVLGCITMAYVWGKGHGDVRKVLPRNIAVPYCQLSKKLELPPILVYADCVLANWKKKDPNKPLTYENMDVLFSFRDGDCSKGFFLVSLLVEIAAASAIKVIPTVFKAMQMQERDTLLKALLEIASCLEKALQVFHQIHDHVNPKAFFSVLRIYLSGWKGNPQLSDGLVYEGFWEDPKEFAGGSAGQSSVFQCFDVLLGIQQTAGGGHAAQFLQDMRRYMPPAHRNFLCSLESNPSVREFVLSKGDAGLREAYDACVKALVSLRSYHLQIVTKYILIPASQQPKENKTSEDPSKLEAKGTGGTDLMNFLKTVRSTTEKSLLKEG
T3 sequence (P14902 whole entry): as above
T4 sequence (P48775 whole entry): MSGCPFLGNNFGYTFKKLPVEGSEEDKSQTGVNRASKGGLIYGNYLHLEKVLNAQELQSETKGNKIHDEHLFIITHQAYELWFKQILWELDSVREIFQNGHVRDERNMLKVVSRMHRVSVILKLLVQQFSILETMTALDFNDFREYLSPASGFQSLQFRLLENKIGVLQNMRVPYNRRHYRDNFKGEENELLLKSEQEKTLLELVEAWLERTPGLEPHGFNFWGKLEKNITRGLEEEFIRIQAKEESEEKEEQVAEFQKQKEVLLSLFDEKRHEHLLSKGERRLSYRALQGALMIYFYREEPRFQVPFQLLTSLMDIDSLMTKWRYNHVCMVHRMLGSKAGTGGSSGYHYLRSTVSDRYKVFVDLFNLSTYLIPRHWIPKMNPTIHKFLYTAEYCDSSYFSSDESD
T2 sequence (P48775 whole entry): as above

| Structure (SMILES) | IC50 [1] [µM] | IC50 ([2]; 24 hours incubation) [µM] | IC50 ([3]; 24 hours incubation) [µM] | IC50 [4] [µM] | IC50 ([2]; 24 hours) [µM] | IC50 ([3]; 24 hours) [µM] |
| --- | --- | --- | --- | --- | --- | --- |
| OC(c1c(F)c(Cl)cc2cn[nH]c12)C12CC3CC(CC(C3)C1)C2 [Compound P-0257, ((1S,3s)-adamantan-1-yl)(5-chloro-6-fluoro-1H-indazol-7-yl)methanol] | 0.0001 to 10 | 0.0001 to 10 | 0.0001 to 10 | 0.0001 to 10 | – | – |
| CC(C)(C(O)c1cc(Cl)cc2cn[nH]c12)N1CCOCC1 (stereo not shown) [Compound P-0215, 1-(5-chloro-1H-indazol-7-yl)-2-methyl-2-morpholinopropan-1-ol] | 0.0001 to 10 | 0.0001 to 10 | 0.0001 to 10 | 0.0001 to 10 | – | – |
| OC(c1cc(Cl)cc2cn[nH]c12)C1CCC(F)(F)CC1 (stereo not shown) [Compound P-0022, (5-chloro-1H-indazol-7-yl)(4,4-difluorocyclohexyl)methanol] | 0.0001 to 10 | 0.0001 to 10 | 0.0001 to 10 | 0.0001 to 10 | – | – |
| CC1(C(O)c2cc(Cl)c(F)c3cn[nH]c23)CCCCC1 (stereo not shown) [Compound P-0055, (5-chloro-4-fluoro-1H-indazol-7-yl)(1-methylcyclohexyl)methanol] | 0.0001 to 10 | 0.0001 to 10 | 0.0001 to 10 | 0.0001 to 10 | – | – |
| CC(C)(C1CCN(C(=O)Nc2ccc(Cl)c(C(F)(F)F)c2)CC1)C(O)c1cc(Cl)cc2cn[nH]c12 (stereo not shown) [Compound P-0393, 4-(1-(5-chloro-1H-indazol-7-yl)-1-hydroxy-2-methylpropan-2-yl)-N-(4-chloro-3-(trifluoromethyl)phenyl)piperidine-1-carboxamide] | 0.0001 to 10 | 0.0001 to 10 | 0.0001 to 10 | 0.0001 to 10 | – | – |
| CC(C)(C)C(O)c1c(Cl)c(Cl)cc2cn[nH]c12 (stereo not shown) [Compound P-0239, 1-(5,6-dichloro-1H-indazol-7-yl)-2,2-dimethylpropan-1-ol] | 0.0001 to 10 | 0.0001 to 10 | 0.0001 to 10 | 0.0001 to 10 | – | – |
| O=C(CC1CC1)N1CCC(C(F)(F)C(O)c2c(F)c(Cl)cc3cn[nH]c23)CC1 (stereo not shown) [Compound P-0408, 1-(4-(2-(5-chloro-6-fluoro-1H-indazol-7-yl)-1,1-difluoro-2-hydroxyethyl)piperidin-1-yl)-2-cyclopropylethan-1-one] | 0.0001 to 10 | – | – | 0.0001 to 10 | 0.0001 to 10 | 0.0001 to 10 |
| CS(=O)(=O)N1CCC(C(F)(F)C(O)c2c3c(cc4cn[nH]c24)CC3)CC1 (stereo not shown) [Compound P-0296, 1-(5,6-dihydro-1H-cyclobuta[f]indazol-7-yl)-2,2-difluoro-2-(1-(methylsulfonyl)piperidin-4-yl)ethan-1-ol] | 0.0001 to 10 | > 10 | 0.0001 to 10 | 0.0001 to 10 | – | – |
| OC1(c2cc(Cl)cc3[nH]ncc23)CC2(CCC2)C1 [Compound P-0336, 2-(6-chloro-1H-indazol-4-yl)spiro[3.3] heptan-2-ol] | 10 to 100 | 0.0001 to 10 | > 10 | 0.0001 to 10 | – | – |
| CC(C)(C1CCN(C(=O)Cc2ccc(Cl)c(F)c2)CC1)[C@H](O)c1cc(Cl)cc2cn[nH]c12 [Compound P-0518, (S)-1-(4-(1-(5-chloro-1H-indazol-7-yl)-1-hydroxy-2-methylpropan-2-yl)piperidin-1-yl)-2-(4-chloro-3-fluorophenyl) ethan-1-one] | 0.0001 to 10 | – | – | 0.0001 to 10 | 0.0001 to 10 | 0.0001 to 10 |
| OC(c1cc(Cl)cc2cn[nH]c12)C(F)(F)C1CCOCC1 (stereo not shown) [Compound P-0192, 1-(5-chloro-1H-indazol-7-yl)-2,2-difluoro-2-(tetrahydro-2H-pyran-4-yl)ethan-1-ol] | 0.0001 to 10 | 0.0001 to 10 | 0.0001 to 10 | 0.0001 to 10 | – | – |
| CC(C)(C1CCN(C(=O)c2ccccc2F)CC1)C(O)c1cc(Cl)cc2cn[nH]c12 (stereo not shown) [Compound P-0364, (4-(1-(5-chloro-1H-indazol-7-yl)-1-hydroxy-2-methylpropan-2-yl)piperidin-1-yl)(2-fluorophenyl) methanone] | 0.0001 to 10 | 0.0001 to 10 | 0.0001 to 10 | 0.0001 to 10 | – | – |
| CS(=O)(=O)N1CC2CCC(C1)C2CC(O)c1cc(Cl)cc2cn[nH]c12 (stereo not shown) [Compound P-0282, 1-(5-chloro-1H-indazol-7-yl)-2-(3-(methylsulfonyl)-3-azabicyclo[3.2.1]octan-8-yl)ethan-1-ol] | 0.0001 to 10 | 0.0001 to 10 | 0.0001 to 10 | 0.0001 to 10 | – | – |
| C[C@@H](NC(=O)N1CCC(C(C)(C)C(O)c2cc(Cl)cc3cn[nH]c23)CC1)c1ccccn1 (stereo partly drawn) [Compound P-0479, 4-(1-(5-chloro-1H-indazol-7-yl)-1-hydroxy-2-methylpropan-2-yl)-N-((R)-1-(pyridin-2-yl)ethyl)piperidine-1-carboxamide] | 0.0001 to 10 | – | – | 0.0001 to 10 | 0.0001 to 10 | 0.0001 to 10 |
| CNC(=O)N1CCC(C2(C(O)c3cc(Cl)cc4cn[nH]c34)CC2)CC1 (stereo not shown) [Compound P-0134, 4-(1-((5-chloro-1H-indazol-7-yl)(hydroxy)methyl)cyclopropyl)-N-methylpiperidine-1-carboxamide] | 0.0001 to 10 | 0.0001 to 10 | 0.0001 to 10 | 0.0001 to 10 | – | – |
| CC(C)C(=O)N1CCC(C(C)(C)C(O)c2cc(Cl)cc3cn[nH]c23)CC1 (stereo not shown) [Compound P-0413, 1-(4-(1-(5-chloro-1H-indazol-7-yl)-1-hydroxy-2-methylpropan-2-yl)piperidin-1-yl)-2-methylpropan-1-one] | 0.0001 to 10 | – | – | 0.0001 to 10 | 0.0001 to 10 | 0.0001 to 10 |
| O=S1(=O)CCC(O)(c2cc(Cl)cc3cn[nH]c23)CC1 [Compound P-0047, 4-(5-chloro-1H-indazol-7-yl)-4-hydroxytetrahydro-2H-thiopyran 1,1-dioxide] | 0.0001 to 10 | 0.0001 to 10 | > 10 | 0.0001 to 10 | – | – |
| OC1(c2cc(Cl)cc3cn[nH]c23)CC2(C1)[C@H]1C[C@@H]3C[C@@H](C[C@H]2C3)C1 (stereo partly drawn) [Compound P-0100, (1R,5S)-3′-(5-chloro-1H-indazol-7-yl)spiro[adamantane-2,1′-cyclobutan]-3′-ol] | 0.0001 to 10 | 0.0001 to 10 | 0.0001 to 10 | 0.0001 to 10 | – | – |
| CC(C)(C1CCN(C2CCCC2)CC1)C(O)c1cc(Cl)cc2cn[nH]c12 (stereo not shown) [Compound P-0320, 1-(5-chloro-1H-indazol-7-yl)-2-(1-cyclopentylpiperidin-4-yl)-2-methylpropan-1-ol] | 0.0001 to 10 | 0.0001 to 10 | 0.0001 to 10 | 0.0001 to 10 | – | – |
| COc1cc(C(O)C2(C)CCCCC2)c2[nH]ncc2c1 (stereo not shown) [Compound P-0115, (5-methoxy-1H-indazol-7-yl)(1-methylcyclohexyl)methanol] | 0.0001 to 10 | 0.0001 to 10 | 0.0001 to 10 | 0.0001 to 10 | – | – |
| COc1ccc(CC(=O)N2CCC(C(F)(F)C(O)c3cc(Cl)cc4cn[nH]c34)CC2)cc1 (stereo not shown) [Compound P-0496, 1-(4-(2-(5-chloro-1H-indazol-7-yl)-1,1-difluoro-2-hydroxyethyl)piperidin-1-yl)-2-(4-methoxyphenyl) ethan-1-one] | 0.0001 to 10 | – | – | 0.0001 to 10 | 0.0001 to 10 | 0.0001 to 10 |
| CC(C)(C1CCN(C(=O)c2ccc(Cl)cn2)CC1)[C@H](O)c1cc(Cl)cc2cn[nH]c12 [Compound P-0548, (S)-(4-(1-(5-chloro-1H-indazol-7-yl)-1-hydroxy-2-methylpropan-2-yl)piperidin-1-yl)(5-chloropyridin-2-yl)methanone] | 0.0001 to 10 | – | – | 0.0001 to 10 | 0.0001 to 10 | 0.0001 to 10 |
